# US9018234B2, “Fluoro-substituted 2-aryl-3,5-dicyano-4-indazolyl-6-methyl-1,4-dihydropyridines and uses thereof” (Bayer Intellectual Property GmbH, priority 2009, dated 2015)
# Assay: Caco-2 permeability assay
# Format: in vitro ADME
# Settings: human, apical to basolateral, 2 μM test concentration, 2 h at 37° C., read-out: Caco-2 permeability PappA-B
# Text: Caco-2 Permeability Assay:
# The in vitro permeation of a test compound across a Caco-2 cell monolayer is a well-established assay system to predict the permeability from the gastro-intestinal tract [cf. P. Artursson and J. Karlsson: Correlation between oral drug absorption in humans and apparent drug permeability coefficients in human intestinal epithelial (Caco-2) cells, Biochem. Biophys. 175 (3), 880-885 (1991)]. The permeability of the compounds of the present invention in such Caco-2 cells was determined as described below:
# Human Caco-2 cells (ACC No. 169, DSMZ, German Collection of Microorganisms and Cell Cultures, Braunschweig, Germany) are seeded on 24-well insert plates and are allowed to grow for 14-16 days. For permeability studies, the test compounds are dissolved in DMSO and diluted to the final test concentration of 2 μM with transport buffer [Hanks' Buffered Salt Solution, Gibco/Invitrogen, further supplemented with glucose (final concentration 19.9 mM) and HEPES (final concentration 9.8 mM)]. For determination of the apical to basolateral permeability (PappA-B), the test compound solution is added to the apical side of the cell monolayer and transport buffer to the basolateral side of the monolayer; for determination of the basolateral to apical permeability (PappB-A), the test compound solution is added to the basolateral side of the cell monolayer and transport buffer to the apical side of the monolayer. Samples are taken from the donor compartment at the beginning of the experiment to confirm mass balance. After an incubation of 2 h at 37° C., samples are taken from both compartments. Samples are analyzed by LC-MS/MS, and the apparent permeability coefficients are calculated. Lucifer Yellow permeability is assayed for each cell monolayer to ensure cell monolayer integrity, and the permeability of Atenolol (low permeability marker) and Sulfasalazine (marker for active excretion) is determined for each batch as quality control.
# Representative results from this assay are listed in Table 2 below together with corresponding data for two structural analogs having an unsubstituted methyl group in 6-position of the 1,4-dihydropyridine ring (comparative Examples A and B, see experimental section above; disclosed generically in WO 2008/071451-A1): […]
row,Structure (SMILES),"Papp at 2 h, 2 μM [×10⁻⁶ cm/s]"
1,Cc1n[nH]c2ccc(C3C(C#N)=C(c4ccc(F)cc4)NC(C(F)F)=C3C#N)cc12 (racemic) [Example 6],15
2,Cc1n[nH]c2ccc(C3C(C#N)=C(c4ccc(F)cc4)NC(C(F)(F)F)=C3C#N)cc12 (racemic) [Example 13],15.8
3,"COc1ccc(C2=C(C#N)C(c3ccc4[nH]nc(C)c4c3)C(C#N)=C(C)N2)cc1 (racemic) [Example A, 2-(4-Methoxyphenyl)-6-methyl-4-(3-methyl-1H-indazol-5-yl)-1,4-dihydropyridine-3,5-dicarbonitrile, reference compound]",9.9
4,"CC1=C(C#N)C(c2ccc3[nH]nc(C)c3c2)C(C#N)=C(c2ccc(F)cc2)N1 (racemic) [Example B, 2-(4-Fluorophenyl)-6-methyl-4-(3-methyl-1H-indazol-5-yl)-1,4-dihydropyridine-3,5-dicarbonitrile, reference compound]",6.2
5,COc1ccc(C2=C(C#N)C(c3ccc4[nH]nc(C)c4c3)C(C#N)=C(C(F)F)N2)cc1 (centres unmarked) [Example 8],17
